Laboratory results reported in PubChem BioAssay AID1259411 (Chemical Carcinogenesis Research Information System (CCRIS), 2018).
Active and inactive are the calls of the source. The rule behind the calls is not given here.

Test system: rodent carcinogenicity bioassays, tumor incidence
Assay: CCRIS carcinogenicity studies
Procedure, shortened: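 Archive of carcinogenicity, mutagenicity, tumor promotion and tumor inhibition results drawn from journals, NCI reports and other sources, expert-reviewed; covers 1985-2011 and is no longer updated.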

Q: CC(=O)N(O)c1ccc2c(c1)Cc1ccccc1-2 was tested. Which carcinogen call (Species: GUINEA PIG, Strain/Sex: FEMALE, Route: INTRAPERITONEAL, Dose: 1.5 G/100 G SUSPENDED IN SALINE-GUM ACACIA 3/WK FOR 27 MO, Tumor Site: Type of Lesion: INJECTION SITE: SARCOMA) did it give?
A: The carcinogen call was “active; positive”.

Q: And the carcinogen call (Species: GUINEA PIG, Strain/Sex: MALE, Route: ORAL, Dose: 0.024-0.064% IN DIET (AMOUNT VARIED BECAUSE OF TOXICITY), Tumor Site: Type of Lesion: INTESTINES (SMALL): ADENOCARCINOMA)?
A: Its carcinogen call is “active; positive”.

Q: And the carcinogen call (Species: HAMSTER, Strain/Sex: MALE, Route: INTRAPERITONEAL, Dose: 1.5 G/100 G SUSPENDED IN SALINE-GUM ACACIA 3/WK FOR 6-8 MO, Tumor Site: Type of Lesion: PERITONEAL CAVITY: FIBROSARCOMA)?
A: The carcinogen call was “active; positive”.

Q: What about the carcinogen call (Species: HAMSTER, Strain/Sex: MALE, Route: ORAL, Dose: 0.032% IN DIET AS 5-10 G OF GLUCOSE TRITURATE/KG DIET FOR 7.5 MO, Tumor Site: Type of Lesion: FORESTOMACH: PAPILLOMA, SQUAMOUS CELL CARCINOMA, LIVER: BENIGN TUMOR) of the same compound?
A: Its carcinogen call is “active; positive”.

Q: And the carcinogen call (Species: MOUSE, Strain/Sex: B6C3F1/MALE, Route: INTRAPERITONEAL, Dose: 0, 0.025, 0.08, 0.23 UMOL/G BW IN 5 µL/G BW OF 80% DMSO ONCE AT 12 D OF AGE (STUDY DURATION: 9 MO), Dose: 0, 0.025, 0.08, 0.23 UMOL/G BW IN 5 µL/G BW OF 80% DMSO ONCE AT 12 D OF AGE (STUDY DURATION: 9 MO), Tumor Site: Type of Lesion: LIVER: HEPATOMA)?
A: The carcinogen call was “active; positive”.

Q: What about the carcinogen call (Species: MOUSE, Strain/Sex: B6C3F2 (BRACHYMORPHOIC)/MALE, Route: INTRAPERITONEAL, Dose: 0, 0.025, 0.08, 0.23 UMOL/G BW IN 5 µL/G BW OF 80% DMSO ONCE AT 12 D OF AGE (STUDY DURATION: 9 MO), Dose: 0, 0.025, 0.08, 0.23 UMOL/G BW IN 5 µL/G BW OF 80% DMSO ONCE AT 12 D OF AGE (STUDY DURATION: 9 MO), Tumor Site: Type of Lesion: LIVER: HEPATOMA) of the same compound?
A: The carcinogen call was “active; positive”.

Q: And the carcinogen call (Species: RABBIT, Strain/Sex: NZW/MALE,FEMALE, Route: INTRAPERITONEAL, Dose: 32.3 MG/KG IN 3 ML/KG SALINE 3/WK FOR 40 WK, Tumor Site: Type of Lesion: PERITONEAL CAVITY: SARCOMA)?
A: Its carcinogen call is “active; positive”.

Q: And the carcinogen call (Species: RAT, Strain/Sex: CRBL/FEMALE, Route: INTRAPERITONEAL, Dose: 4.O MG/100 G 3/WK FOR 2 WK THEN 3.0 MG/100 G 3/WK FOR 2 WK, Tumor Site: Type of Lesion: MAMMARY GLAND: BENIGN TUMOR, NEOPLASM)?
A: Its carcinogen call is “active; positive”.

Q: And the carcinogen call (Species: RAT, Strain/Sex: F344/FEMALE, Route: INTRAPERITONEAL, Dose: 0.10 MMOL/RAT (TOTAL DOSE), Tumor Site: Type of Lesion: LIVER: CHOLANGIOMA, CARCINOMA)?
A: Its carcinogen call is “active; positive”.

Q: And the carcinogen call (Species: RAT, Strain/Sex: F344/MALE, Route: ORAL, Dose: 160 UG/G IN DIET FOR 12 WK, Tumor Site: Type of Lesion: LIVER: HEPATOMA)?
A: The carcinogen call was “active; positive”.

Q: What about the carcinogen call (Species: RAT, Strain/Sex: HOLTZMAN/FEMALE, Route: INTRAPERITONEAL, Dose: 2-AAF EQUIV OF 2.5 MG SUSPENDED IN SALINE-GUM ACACIA 3/WK FOR 3 WK THEN 3.5 MG FOR 2 WK THEN 3.0 MG FOR 9 WK, Tumor Site: Type of Lesion: MAMMARY GLAND: NEOPLASM, PERITONEAL CAVITY: SARCOMA) of the same compound?
A: Its carcinogen call is “active; positive”.

Q: What about the carcinogen call (Species: RAT, Strain/Sex: HOLTZMAN/FEMALE, Route: INTRAPERITONEAL, Dose: 2-AAF EQUIV OF 4 MG IN 0.4 ML SALINE-GUM ACACIA 3/WK FOR 4 WK, Tumor Site: Type of Lesion: MAMMARY GLAND: NEOPLASM) of the same compound?
A: The carcinogen call was “active; positive”.

Q: What about the carcinogen call (Species: RAT, Strain/Sex: HOLTZMAN/FEMALE, Route: ORAL, Dose: 0.032% IN GRAIN DIET FOR 4 MO, Tumor Site: Type of Lesion: MAMMARY GLAND: NEOPLASM, FORESTOMACH: PAPILLOMA, CARCINOMA, EAR (DUCT): NEOPLASM, INTESTINES (SMALL), Tumor Site: Type of Lesion: MAMMARY GLAND: NEOPLASM, FORESTOMACH: PAPILLOMA, CARCINOMA, EAR (DUCT): NEOPLASM, INTESTINES (SMALL)) of the same compound?
A: Its carcinogen call is “active; positive”.

Q: What about the carcinogen call (Species: RAT, Strain/Sex: HOLTZMAN/MALE, Route: INTRAPERITONEAL, Dose: 2-AAF EQUIV OF 2.5 MG SUSPENDED IN SALINE-GUM ACACIA 3/WK FOR 3 WK THEN 3.5 MG 3/WK FOR 3 WK THEN 3.0 MG 3/WK FOR 9 WK, Tumor Site: Type of Lesion: EAR (DUCT): NEOPLASM, PERITONEAL CAVITY: SARCOMA, INTESTINES (SMALL): NEOPLASM, Tumor Site: Type of Lesion: EAR (DUCT): NEOPLASM, PERITONEAL CAVITY: SARCOMA, INTESTINES (SMALL): NEOPLASM) of the same compound?
A: Its carcinogen call is “active; positive”.

Q: What about the carcinogen call (Species: RAT, Strain/Sex: HOLTZMAN/MALE, Route: ORAL, Dose: 0.032% IN GRAIN DIET FOR 3 MO, Tumor Site: Type of Lesion: LIVER: NEOPLASM, FORESTOMACH: PAPILLOMA, CARCINOMA) of the same compound?
A: Its carcinogen call is “active; positive”.

Q: What about the carcinogen call (Species: RAT, Strain/Sex: HOLTZMAN/MALE, Route: SUBCUTANEOUS, Dose: 3.2 MG IN 0.2 ML TRICAPRYLIN 2/WK FOR 4 WK, Tumor Site: Type of Lesion: INJECTION SITE: SARCOMA, EAR (DUCT): CARCINOMA) of the same compound?
A: Its carcinogen call is “active; positive”.

Q: What about the carcinogen call (Species: RAT, Strain/Sex: NIHBL/MALE,FEMALE, Route: ORAL, Dose: 80 UG/G IN DIET FOR 64 WK, Tumor Site: Type of Lesion: LIVER: HEPATOMA, CHOLANGIOMA) of the same compound?
A: Its carcinogen call is “active; positive”.

Q: What about the carcinogen call (Species: RAT, Strain/Sex: SPRAGUE-DAWLEY/FEMALE, Route: INTRAPERITONEAL, Dose: 0.10, 0.17 MMOL/RAT (TOTAL DOSE), Tumor Site: Type of Lesion: MAMMARY GLAND: ADENOCARCINOMA) of the same compound?
A: Its carcinogen call is “active; positive”.

Q: What about the carcinogen call (Species: RAT, Strain/Sex: STRAIN-CD/FEMALE, Route: INTRAPERITONEAL, Dose: 0, 67 UMOL/KG BW IN DMSO 3/WK FOR 4 WK (STUDY DURATION: 61 WK), Tumor Site: Type of Lesion: MAMMARY GLAND: ADENOCARCINOMA, HEMATOPOIETIC SYSTEM: LEUKEMIA, LYMPHOMA) of the same compound?
A: The carcinogen call was “active; positive”.

Q: What about the carcinogen call (Species: RAT, Strain/Sex: STRAIN-CD/FEMALE, Route: ORAL, Dose: 0.025% IN GRAIN DIET FOR 4 MO, Tumor Site: Type of Lesion: MAMMARY GLAND: CARCINOMA, LIVER: BENIGN TUMOR, NEOPLASM, EAR (DUCT): CARCINOMA, Tumor Site: Type of Lesion: MAMMARY GLAND: CARCINOMA, LIVER: BENIGN TUMOR, NEOPLASM, EAR (DUCT): CARCINOMA) of the same compound?
A: Its carcinogen call is “active; positive”.

Q: For COc1ccc([C@H]2O[C@H]2C)cc1, which carcinogen call (Species: MOUSE, Strain/Sex: B6C3F1/MALE, Route: INTRAPERITONEAL, Dose: 0, 0.25, 0.5 UMOL/G BW ONCE (STUDY DURATION: 10-11 MONTHS), Dose: 0, 0.25, 0.5 UMOL/G BW ONCE (STUDY DURATION: 10-11 MONTHS), Tumor Site: Type of Lesion: LIVER: HEPATOMA) is on record?
A: The carcinogen call was “active; positive”.

Q: What about the carcinogen call (Species: MOUSE, Strain/Sex: CD-1/FEMALE, Route: DERMAL, Dose: 0, 5 UMOL 1X/WK FOR 3 WK BEGINNING 24 HR POST FIRST TPA DOSE (2.5 UG IN 0.1 ML ACETONE), FOLLOWED BY 2.5 UG TPA IN 0.1 M, Tumor Site: Type of Lesion: SKIN: PAPILLOMA) of the same compound?
A: Its carcinogen call is “active; positive”.

Q: With O=C(O)COc1ccc(Cl)cc1Cl as the compound, how does the carcinogen call (Species: MOUSE, Strain/Sex: B6C3F1/FEMALE, Route: ORAL, Dose: 0, 5, 150, 300 MG/KG BW DAILY FOR 2 YR (STUDY DURATION: 2 YR), Dose: 0, 5, 150, 300 MG/KG BW DAILY FOR 2 YR (STUDY DURATION: 2 YR)) read?
A: Its carcinogen call is “inactive; negative”.

Q: And the carcinogen call (Species: MOUSE, Strain/Sex: B6C3F1/MALE, Route: ORAL, Dose: 0, 5, 62.5, 125 MG/KG BW DAILY FOR 2 YR (STUDY DURATION: 2 YR), Dose: 0, 5, 62.5, 125 MG/KG BW DAILY FOR 2 YR (STUDY DURATION: 2 YR))?
A: The carcinogen call was “inactive; negative”.

Q: And the carcinogen call (Species: RAT, Strain/Sex: F344/FEMALE, Route: ORAL, Dose: 0, 5, 75, 150 MG/KG BW DAILY FOR 2 YR (STUDY DURATION: 2 YR), Dose: 0, 5, 75, 150 MG/KG BW DAILY FOR 2 YR (STUDY DURATION: 2 YR))?
A: Its carcinogen call is “inactive; negative”.

Q: What about the carcinogen call (Species: RAT, Strain/Sex: F344/MALE, Route: ORAL, Dose: 0, 5, 75, 150 MG/KG BW DAILY FOR 2 YR (STUDY DURATION: 2 YR), Dose: 0, 5, 75, 150 MG/KG BW DAILY FOR 2 YR (STUDY DURATION: 2 YR)) of the same compound?
A: Its carcinogen call is “inactive; negative”.

Q: With Cc1cc2ccccc2c2cc([N+](=O)[O-])c3ccccc3c12 as the compound, how does the carcinogen call (Species: MOUSE, Strain/Sex: SWISS/FEMALE, Route: INTRAPERITONEAL, Dose: 0, 100 NMOL (TOTAL DOSE) ADMINISTERED 1/7, 2/7 AND 4/7 ON DAY 1, 8 AND 15 RESPECTIVELY (STUDY DURATION: 32 WK), Tumor Site: Type of Lesion: LUNG: TUMOR) read?
A: The carcinogen call was “active; positive”.

Q: What about the carcinogen call (Species: MOUSE, Strain/Sex: SWISS/MALE, Route: INTRAPERITONEAL, Dose: 0, 100 NMOL (TOTAL DOSE) ADMINISTERED 1/7, 2/7 AND 4/7 ON DAY 1, 8 AND 15 RESPECTIVELY (STUDY DURATION: 32 WK), Tumor Site: Type of Lesion: LIVER: TUMOR, LUNG: TUMOR) of the same compound?
A: The carcinogen call was “active; positive”.

Q: With CN(CC(O)CO)N=O (centres undefined) as the compound, how does the carcinogen call (Species: HAMSTER, Strain/Sex: SYRIAN/FEMALE, Route: GAVAGE, Dose: 0, 2.4 MG IN 0.2 ML OF WATER 1/WK FOR 41 WK FOR A TOTAL DOSE OF 98 MG (STUDY DURATION: 45 WK), Tumor Site: Type of Lesion: NASAL MUCOSA: CARCINOMA, ADENOMA) read?
A: Its carcinogen call is “active; positive”.
